Data from patent publication US4818770A, “Prevention of a plant disease by specific inhibition of fungal polyamine biosynthesis” (priority 1986, dated 1989).
Values joined by “and” are separate entries in the source; they are usually repeats but may differ in a detail not shown here. Equal values may be shown once. Read-outs that look alike come from different tables or passages of the source.

Legend:
Erysiphe graminis = assay: Wheat powdery mildew infection, colonies per plant; conditions: concentrations up to 5 mM
Protocol: With wheat powdery mildew (E. graminis) 10-day-old seedlings were sprayed with solutions of DFMA or DFMO from 0.01 to 5.0 mM before and after inoculation of the plants with conidia. Inoculation occurred naturally in the greenhouse by distributing infected plants among the experimental plants for 24 hours. Infection was evaluated 10 days after inoculation by counting mildew colonies.

[1] = test system: P. recondita f. sp. tritici; format: in vivo, Puccinia recondita f. sp. tritici
bean rust uredospores = assay: Germination and differentiation of bean rust uredospores in agar; format: cell-based, Uromyces phaseoli; conditions: for inhibition at 100 µM / inhibition at 500 µM / inhibition at 1000 µM / inhibition at 5000 µM: Uromyces phaseoli
[2] = test system: Botrytis sp., B. cinerea, Rhizoctonia solani, Monilinia fructicola; conditions: cited from earlier work
[3] = test system: Colletotrichum lagenarium; assay: Infection of National Pickling cucumber plants by cucumber anthracnose
[4] = test system: Puccinia graminis fsp avenae; format: in vivo
[5] = test system: bean plants (Phaseolus vulgaris cv Pinto); assay: Effect of sprays on growth and appearance of bean plants; format: in vivo; conditions: sprays 0.01, 0.1 and 1.0 mM
Protocol: Unifoliolate leaves of 10-day-old bean seedlings were sprayed (400 ul per leaf) with DFMO or alpha-difluoromethylarginine (DFMA) at concentrations of 0.01-5 mM, before or after inoculation with uredospores of the bean rust, Uromyces phaseoli, Race 0. The inhibitor solutions were prepared in 0.01% Tween 20, with the pH adjusted to 7.0. Control plants without inhibitor were sprayed similarly and were allowed to dry before inoculation with the pathogen. After inoculation with rust uredospores (25 mg/100 ml of 0.01% Tween 20) all plants were placed in dew chambers (100% relative humidity) for 16 hours at 19° C. in total darkness. After exposures to inhibitors and uredospores, all plants were returned to the greenhouse and arranged randomly. Disease severity was evaluated 7 days after inoculation by counting foliar lesions. In control plants and those treated with low concentrations of DFMO, uredospores were collected randomly from each treatment to determine percent germination and pathogenicity. For determination of germination, spores were dusted onto Petri plates containing 10 mM 2-(N-morpholino)ethanesulfonic acid (Mes) at pH 7.0, 3 mM CaCl2, 2 mM MgSO4, and 1% purified agar, and incubated for 3 hr at 19° C. in the light.

Verticillium dahliae [6] = assay: Radial mycelial growth of Verticillium dahliae in vitro; format: cell-based; conditions: Verticillium dahliae, read-out: inhibition of radial growth relative to that observed with DFMO
Erysiphe polygoni = assay: Infection by bean powdery mildew; format: in vivo
Podosphaera leucotricha = assay: Infection of apple by powdery mildew; format: in vivo
Verticillium dahliae [7] = assay: Verticillium wilt symptoms in Bonny Best tomato after foliar spray; format: in vivo; conditions: concentrations up to 10 mM
Uromyces phaseoli = assay: Bean rust lesions on unifoliolate leaves of Pinto bean sprayed before or after inoculation; format: in vivo
[8] = read-out: Differentiation % Inhibiton
[9] = read-out: Germination % Inhibition
[10] = postinoculation exposure, inhibitor 1.0 mM
[11] = postinoculation exposure, inhibitor 5.0 mM
[12] = preinoculation exposure, inhibitor 1.0 mM
[13] = preinoculation exposure, inhibitor 5.0 mM

With `N=C(N)NCCC[C@](N)(C(=O)O)C(F)F` [DFMA, alpha-difluoromethylarginine] the “control of wheat powdery mildew infection” value (Erysiphe graminis) was “ineffective”, the Uredia/plant ([1]; 0.01 mM) was 74 Uredia/plant and 49 Uredia/plant and the Uredia/plant ([1]; 0.025 mM) was 62 Uredia/plant and 40 Uredia/plant. For the same compound, the “% control” value ([1]; 0.065 mM) was 32% and 54%, the Uredia/plant ([1]; 0.065 mM) was 54 Uredia/plant and 37 Uredia/plant and the “% control” value ([1]; 0.10 mM) was 37% and 51%. For the same compound, the Uredia/plant ([1]; 0.10 mM) was 50 Uredia/plant and 39 Uredia/plant, the “% control” value ([1]; 0.13 mM) was 34% and 47% and the Uredia/plant ([1]; 0.13 mM) was 53 Uredia/plant and 42 Uredia/plant. The “% control” value ([1]; 0.16 mM) was 39% and 49%, the Uredia/plant ([1]; 0.16 mM) was 49 Uredia/plant and 41 Uredia/plant and the “% control” value ([1]; 0.20 mM) was 46% and 47%. For the same compound, the Uredia/plant ([1]; 0.20 mM) was 43 Uredia/plant and 42 Uredia/plant, the “% control” value ([1]; 1.00 mM) was 57% and 77% and the Uredia/plant ([1]; 1.00 mM) was 34 Uredia/plant and 18 Uredia/plant. It also gave a Differentiation % (bean rust uredospores; 0.1 mM) of 46%, a Germination % (bean rust uredospores; 0.1 mM) of 36% and a Differentiation % (bean rust uredospores; 0.5 mM) of 30%. It also gave a Germination % (bean rust uredospores; 0.5 mM) of 36%, a Differentiation % (bean rust uredospores; 1.0 mM) of 23% and a Germination % (bean rust uredospores; 1.0 mM) of 31%. For the same compound, the Differentiation % (bean rust uredospores; 5.0 mM) was 18%, the Germination % (bean rust uredospores; 5.0 mM) was 26% and the inhibition at 100 µM (bean rust uredospores; [8]) was 22%. For the same compound, the inhibition at 500 µM (bean rust uredospores; [8]) was 49%, the inhibition at 1000 µM (bean rust uredospores; [8]) was 61% and the inhibition at 5000 µM (bean rust uredospores; [8]) was 69%. The inhibition at 100 µM (bean rust uredospores; [9]) was 14%, the inhibition at 500 µM (bean rust uredospores; [9]) was 14% and the inhibition at 1000 µM (bean rust uredospores; [9]) was 26%. For the same compound, the inhibition at 5000 µM (bean rust uredospores; [9]) was 38%, the “mycelial growth in vitro” value ([2]; Botrytis sp., B. cinerea, Rhizoctonia solani, Monilinia fructicola) was “inhibited mycelial growth” and the “relative inhibition of fungal growth in vitro” value ([2]; Plant Cell Physiol. (1985), vol. 26, 683-692) was “more effective inhibitor of fungal growth than was DFMO”. The Lesions per plant ([3]; 1.0 mM) was 73 per plant, the Percent control ([3]; 1.0 mM) was 10% and the Lesions per plant ([3]; 5.0 mM) was 71 per plant. It also gave a Percent control ([3]; 5.0 mM) of 12%, a Lesions per plant ([3]; 10.0 mM) of 73 per plant and a Percent control ([3]; 10.0 mM) of 10%. It also gave a Percent control ([4]; 0.01 mM) of 40.4%, a Percent control ([4]; 0.025 mM) of 32.6% and a Percent control ([4]; 0.065 mM) of 41.9%. The Percent control ([4]; 0.10 mM) was 53.1%, the Percent control ([4]; 0.13 mM) was 61.5% and the Percent control ([4]; 0.16 mM) was 57.0%. The Percent control ([4]; 0.20 mM) was 63.8%, the Percent control ([4]; 1.00 mM) was 86.0% and the “effectiveness against oat stem rust compared with DFMO” value ([4]; in vivo) was “nearly as effective as DFMO”. For the same compound, the “growth of the bean plants” value [5] was “no effect”, the inhibition at 500 µM (Verticillium dahliae [6]) was roughly 50% and the Percent control (Erysiphe polygoni; 1 mM) was 7%. For the same compound, the Percent control (Erysiphe polygoni; 5 mM) was 35%, the Percent control (Erysiphe polygoni; 10 mM) was 35% and the “Percent control” value (Podosphaera leucotricha; 1 mM) was 0.8%. For the same compound, the “Percent control” value (Podosphaera leucotricha; 5 mM) was 28.8%, the “Percent control” value (Podosphaera leucotricha; 10 mM) was 0.0% and the “control of apple powdery mildew” value (Podosphaera leucotricha; 1-10 mM applications) was “essentially ineffective”. For the same compound, the “symptom severity and time of symptom expression” value (Verticillium dahliae [7]) was “did not alter either symptom severity nor time of symptom expression”, the “reduction of bean rust infection” value (Uromyces phaseoli; even at 5.0 mM) was “ineffective” and the “germination or pathogenicity of uredospores collected from treated plants” value (Uromyces phaseoli; plants treated with low concentrations) was “no decrease in germination or pathogenicity”. For the same compound, the “Lesions per cm^2” value (Uromyces phaseoli; [10]) was 56 ± 3 per cm^2, the Lesions per leaf (Uromyces phaseoli; [10]) was 2829 ± 242 per leaf and the “Lesions per cm^2” value (Uromyces phaseoli; [11]) was 50 ± 2 per cm^2. For the same compound, the Lesions per leaf (Uromyces phaseoli; [11]) was 2195 ± 169 per leaf, the “Lesions per cm^2” value (Uromyces phaseoli; [12]) was 51 ± 4 per cm^2 and the Lesions per leaf (Uromyces phaseoli; [12]) was 3101 ± 217 per leaf. The “Lesions per cm^2” value (Uromyces phaseoli; [13]) was 46 ± 4 per cm^2 and the Lesions per leaf (Uromyces phaseoli; [13]) was 2928 ± 317 per leaf.
